Results taken from patent US8680290B2, “Isoxazoline derivatives and their use as herbicides” (Syngenta Limited, priority 2004, dated 2014).

Legend:
[1] = system: Monocotyledonous and dicotyledonous test plants; test: Example B1 herbicidal action, application pre-emergence (Table B1b); format: in vivo; settings: 250 g/ha, evaluated after 4 weeks
Description: (§1) Monocotyledonous and dicotyledonous test plants were sown in seed trays in standard soil. Immediately after sowing (pre-emergence) or after 8 to 9 days cultivation (post-emergence), the test compounds were applied by spraying in the form of an aqueous solution derived from the formulation of the technical active ingredient in 0.6 ml acetone and 45 ml formulation solution containing 10.6% Emulsogen EL (CAS RN 61791-12-6), 42.2% N-methylpyrrolidone, 42.2% dipropylene glycol monomethyl ether (CAS RN 34590-94-8) and 0.2% X-77 (CAS RN 11097-66-8). The test plants were then grown in a greenhouse under optimum conditions. After a test duration of 3 weeks (post-emergence) or 4 weeks (pre-emergence), the test was evaluated (10=total damage to plant, 0=no damage to plant).

[2] = system: Monocotyledonous and dicotyledonous test plants; test: Example B1 herbicidal action, application post-emergence (Table B1a); format: in vivo; settings: 250 g/ha, evaluated after 3 weeks, scale 0-10
Description: as §1

Structure (SMILES)	herbicidal action (damage rating 0-10), Amaranthus [1]	herbicidal action (damage rating 0-10), Digitaria [1]	herbicidal action (damage rating 0-10), Panicum [1]	herbicidal action (damage rating 0-10), Setaria [1]	herbicidal action (damage rating 0-10), Sida [1]	herbicidal damage rating, Abutilon [2]	herbicidal damage rating, Amaranthus [2]	herbicidal damage rating, Digitaria [2]	herbicidal damage rating, Panicum [2]	herbicidal damage rating, Setaria [2]	herbicidal damage rating, Sida [2]
CC1(C)CC(S(=O)(=O)C(F)(Cl)c2cc(F)cc(F)c2)=NO1 (stereo not shown) [1.125]	10	10	10	10	7	0	0	8	7	5	3
CC1(C)CC(S(=O)(=O)C(F)(Cl)c2cccnc2Cl)=NO1 (stereo not shown) [8.03]	8	10	10	8	6	4	0	7	6	4	0
CC1(C)CC(S(=O)(=O)C(F)(F)c2ccccc2OC(F)F)=NO1 [1.66]	10	10	10	10	9	8	5	8	5	7	5
COc1cc(OC)cc(C(F)(F)S(=O)(=O)C2=NOC(C)(C)C2)c1 [1.76]	9	9	10	8	3	5	3	–	5	5	5
CC1(C)CC(S(=O)(=O)C(F)(Cl)c2ccc(F)cc2F)=NO1 (stereo not shown) [1.133]	10	10	10	10	6	0	5	8	7	5	4
COCCC(c1c(F)cccc1F)S(=O)(=O)C1=NOC(C)(C)C1 (stereo not shown) [Compound No. 1.03]	–	–	–	–	–	0	9	6	9	–	5
COc1ccccc1C(F)(Cl)S(=O)(=O)C1=NOC(C)(C)C1 (stereo not shown) [1.142]	–	–	–	–	–	0	0	8	7	5	3
CC1(C)CC(S(=O)(=O)C(C(=O)CCl)c2c(F)cccc2F)=NO1 (stereo not shown) [Compound No. 1.60]	7	9	10	9	0	–	–	–	–	–	–
CC1(C)CC(S(=O)(=O)C(Cl)c2c(F)cccc2C(F)(F)F)=NO1 (racemic) [1.91]	3	10	–	9	10	–	–	–	–	–	–
CCOC(=O)c1ccc(C(F)(Cl)S(=O)(=O)C2=NOC(C)(C)C2)c(F)c1 (stereo not shown) [1.128]	–	–	–	–	–	2	5	4	7	3	0
COC(=O)c1ccc(C(F)(F)S(=O)(=O)C2=NOC(C)(C)C2)c(F)c1 [1.119]	–	–	–	–	–	3	5	3	7	7	4
COc1ccccc1C(Br)S(=O)(=O)C1=NOC(C)(C)C1 (stereo not shown) [1.101]	9	8	8	8	0	–	–	–	–	–	–
Cc1nsc(C#N)c1C(F)S(=O)(=O)C1=NOC(C)(C)C1 (stereo not shown) [Compound No. 3.01, 4-[(5,5-dimethyl-4,5-dihydroisoxazole-3-sulfonyl)-fluoromethyl]-3-methyl-isothiazole-5-carbonitrile]	7	8	10	7	0	–	–	–	–	–	–
CC1(C)CC(S(=O)(=O)C(Br)c2cc(F)cc3c2OCOC3)=NO1 (stereo not shown) [1.103]	3	9	9	5	0	–	–	–	–	–	–
CC1(C)CC(S(=O)(=O)C(F)c2cc(F)cc3c2OCOC3)=NO1 (stereo not shown) [1.106]	3	7	8	6	0	–	–	–	–	–	–
CC1(C)CC(S(=O)(=O)C(F)(Cl)c2ccccc2-c2ccccc2)=NO1 (stereo not shown) [1.149]	–	–	–	–	–	4	4	5	5	3	5
CC1(C)CC(S(=O)(=O)C(Br)(Br)c2c(F)cccc2F)=NO1 [1.50]	10	9	10	10	7	–	–	–	–	–	–
CC1(C)CC([S+]([O-])C(Cl)c2c(F)cccc2Cl)=NO1 (single isomer, unassigned) [1.33]	0	8	10	7	0	–	–	–	–	–	–
CC1(C)CC(S(=O)(=O)C(CC=C(F)F)c2c(F)cccc2F)=NO1 (stereo not shown) [Compound No. 1.04]	0	7	5	2	0	–	–	–	–	–	–
